Drawing on PubChem BioAssay (NCI), this text covers TGI and GI50 for ten compounds.

Where “and” joins values, the source holds several entries; their conditions need not be identical. Equal entries are not always repeated.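 Test compounds were applied to cells in 96-well plates for 48 hours at 5 doses. GI50 is the concentration that inhibits growth by half. The concentration for full growth arrest is given as TGI.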 A value given as a limit tells only on which side of the number the result lay.

Test systems include OVCAR-8 ovarian; LOX IMVI melanoma; HCT-116 colon; COLO 205 colon; ACHN renal; CAKI-1 renal; TK-10 renal; HS 578T breast; SK-MEL-28 melanoma; SNB-75 CNS.
Holding throughout (assay): NCI anticancer screen, dose series, 48 h

For `Cc1cc2c(C(C)C)c(O)c(O)c(C=Nc3cc(C(F)(F)F)ccc3Cl)c2c(O)c1-c1c(C)cc2c(C(C)C)c(O)c(O)c(C=Nc3cc(C(F)(F)F)ccc3Cl)c2c1O`, the TGI with OVCAR-8 ovarian was greater than 100 µM; in the assay on LOX IMVI melanoma it was 47.3 µM; in the assay on HCT-116 colon, greater than 100 µM; in the assay with COLO 205 colon, 90.5 µM; in the assay on ACHN renal, 79.4 µM; in the assay with CAKI-1 renal, greater than 100 µM. Further, the TGI in the assay on TK-10 renal, in the assay with HS 578T breast and with SK-MEL-28 melanoma was greater than 100 µM in each case.
For the compound `O=C(CCc1nc(=S)[nH][nH]1)NC12CC3CC(CC(C3)C1)C2`, the TGI in the assay on OVCAR-8 ovarian, in the assay with LOX IMVI melanoma, with HCT-116 colon, with COLO 205 colon, with ACHN renal and in the assay with SNB-75 CNS was greater than 100 µM each time. The TGI in the assay on CAKI-1 renal, in the assay with TK-10 renal and in the assay on SK-MEL-28 melanoma was greater than 100 µM each time.
Consider `COc1ccc(-c2cc(-c3ccc(Cl)cc3)c(C#N)c(=O)n2CCCCC(=O)Nc2ccccc2N)cc1`, for which the GI50 in the assay on OVCAR-8 ovarian was 4.7 µM; with LOX IMVI melanoma, 1.16 µM; in the assay with HCT-116 colon, 3.25 µM; in the assay on COLO 205 colon, 4.04 µM; with ACHN renal, 5.25 µM; in the assay with CAKI-1 renal it was 2.52 µM. For the same compound, the results for the GI50 with TK-10 renal, with HS 578T breast and with SK-MEL-28 melanoma were 27.9 µM, 8.18 µM and 9.13 µM, respectively. In addition, the TGI in the assay on OVCAR-8 ovarian is greater than 100 µM; with LOX IMVI melanoma, 2.92 µM; in the assay on HCT-116 colon it was 20.7 µM; with COLO 205 colon, greater than 100 µM; in the assay on ACHN renal, greater than 100 µM; in the assay on CAKI-1 renal, 20.2 µM. The TGI with TK-10 renal is greater than 100 µM; in the assay on HS 578T breast, 52.4 µM; in the assay on SK-MEL-28 melanoma, greater than 100 µM.
Consider `COc1cc(C2c3cc4c(cc3[C@@H](Nc3ccc(N(C)C)cc3)[C@H]3COC(=O)C23)OCO4)cc(OC)c1O` (stereo not given in full), for which the GI50 in the assay on OVCAR-8 ovarian was 1.78 µM; with HCT-116 colon, 5.52 µM; in the assay on COLO 205 colon, 3.51 µM; in the assay on ACHN renal it was 0.0694 µM; in the assay with SNB-75 CNS it was 0.881 µM; in the assay with CAKI-1 renal it was 0.311 µM. The figures for the GI50 with TK-10 renal and in the assay with SK-MEL-28 melanoma were 8.85 µM and 12.1 µM, respectively. For the same compound, the TGI was 7.97 µM and 24.9 µM in the assay with OVCAR-8 ovarian; 17.6 µM with LOX IMVI melanoma; 11.7 µM and 20.2 µM in the assay with HCT-116 colon; 8.04 µM and 18.9 µM with COLO 205 colon; 0.999 µM and 1.34 µM in the assay with ACHN renal; 9.26 µM and 10.9 µM with SNB-75 CNS. Besides, the TGI in the assay with CAKI-1 renal is 1.03 µM and 3.42 µM; in the assay on TK-10 renal, 11.6 µM and 27.2 µM; in the assay on SK-MEL-28 melanoma, 14.9 µM and 28.2 µM.
For the compound `CC(C)c1ccc2nc3ccc(C(=O)NCCN(C)C)cn3c(=O)c2c1`, the TGI in the assay with OVCAR-8 ovarian was 39.9 µM; in the assay on HCT-116 colon, 27.7 µM; in the assay on COLO 205 colon it was 33.8 µM; with ACHN renal it was 94.2 µM; in the assay with SNB-75 CNS, 22.5 µM; with CAKI-1 renal, 45 µM. Besides, the TGI was found to be 34.3 µM in the assay on TK-10 renal, 35.6 µM in the assay on HS 578T breast and 32.4 µM in the assay on SK-MEL-28 melanoma.
In the case of `N=C(N)SCc1cn2ccccc2n1`, the TGI with OVCAR-8 ovarian, with LOX IMVI melanoma, in the assay with HCT-116 colon, in the assay on COLO 205 colon, in the assay with ACHN renal and in the assay on SNB-75 CNS was greater than 100 µM each time. Besides, the TGI in the assay with CAKI-1 renal, in the assay with TK-10 renal and with SK-MEL-28 melanoma was greater than 100 µM each time.
For the compound `Nc1c(C(=O)Nc2ccc([As](=O)(O)O)cc2)cnc2nnnn12`, the TGI with OVCAR-8 ovarian, in the assay on LOX IMVI melanoma, in the assay with HCT-116 colon, in the assay with COLO 205 colon, in the assay with ACHN renal and in the assay with SNB-75 CNS was greater than 100 µM in each case. Further, the TGI in the assay with CAKI-1 renal, in the assay on TK-10 renal and with SK-MEL-28 melanoma was greater than 100 µM each time.
`CN1C2CC(C#N)C1C=CC2=O` (stereo not given): the GI50 was 24.5 µM and > 100 µM in the assay on OVCAR-8 ovarian; 13.4 µM and 43.8 µM in the assay with HCT-116 colon; 22.8 µM and > 100 µM in the assay on ACHN renal; 40.5 µM and > 100 µM in the assay on TK-10 renal; 35.4 µM and > 100 µM in the assay on HS 578T breast; 17.8 µM and > 100 µM with SK-MEL-28 melanoma. For the same compound, the TGI is 70.9 µM and > 100 µM with OVCAR-8 ovarian; 27.2 µM and > 100 µM with HCT-116 colon; 76.9 µM and > 100 µM in the assay on ACHN renal; greater than 100 µM in the assay with TK-10 renal; greater than 100 µM in the assay on HS 578T breast; 36.7 µM and > 100 µM in the assay with SK-MEL-28 melanoma.
With `CC1(C)C(=O)C(O)=CC2C1=CCC1C2(C)C(=O)CC2(C)C(C(C)(O)C(=O)CC(O)C(C)(C)O)C(O)CC12C` (stereo not given), the TGI in the assay on OVCAR-8 ovarian was greater than 100 µM; with LOX IMVI melanoma, 6.95 µM; in the assay with HCT-116 colon it was 33.7 µM; with COLO 205 colon, greater than 100 µM; with ACHN renal, 16.2 µM; in the assay with SNB-75 CNS, 4.77 µM. For the same compound, the values for the TGI in the assay with CAKI-1 renal, in the assay on TK-10 renal and in the assay with SK-MEL-28 melanoma were 5.1 µM, 5.94 µM and 7.43 µM, respectively. Moreover, the GI50 with SNB-75 CNS is 1.74 µM.
Turning to `Cc1ccc(C(=O)/C(=C/c2ccc([N+](=O)[O-])cc2)S(=O)Cc2ccccc2)cc1` (stereo not given), the GI50 is 1.36 µM with OVCAR-8 ovarian; 0.417 µM in the assay with LOX IMVI melanoma; 1.57 µM with HCT-116 colon; 1.47 µM in the assay with COLO 205 colon; 1.56 µM in the assay on ACHN renal; 1.27 µM in the assay on SNB-75 CNS. In addition, the GI50 with TK-10 renal was 1.78 µM; in the assay with HS 578T breast, 2.58 µM; with SK-MEL-28 melanoma it was 1.66 µM. The TGI came to 3.23 µM in the assay on OVCAR-8 ovarian; 1.67 µM in the assay with LOX IMVI melanoma; 2.99 µM in the assay on HCT-116 colon; 3.16 µM in the assay on COLO 205 colon; 2.92 µM with ACHN renal; 2.73 µM in the assay with SNB-75 CNS. In addition, the TGI in the assay on TK-10 renal is 3.26 µM; in the assay on HS 578T breast it was 8.87 µM; in the assay with SK-MEL-28 melanoma it was 3.15 µM.
